The values that follow come from patent publication US8273773B2 (priority 2008, dated 2012).

Molecules are shown by their SMILES. Read-outs that look alike come from different tables or passages of the source. Bounds are passed on as bounds.

Series [1] concerns HCV replicon cells (2209-23), genotype 1b replicon. The series is described as follows: HCV Replicon Assay (Renilla luciferase reporter). The series is classed as cell-based, HCV genotype 1b replicon in human hepatoma Huh7 cells. As to conditions: 2209-23 cells, three days incubation. On the technique in general: A replicon is a self-replicating genome or part of one, used to study replication in cells.

Series [2] addresses T1, HCV polymerase (NS5B570n-Con1) (Hepatitis C virus genotype 1b, UniProt Q9WMX2).
T1 construct: contains a 21 amino acid deletion at the C-terminus relative to the full-length HCV polymerase; 6-histidine (N); made in house; host or cells: E. coli strain BL21(DE) pLysS (pET17b)
Nature of the series: biochemical. Also noted: species or system HCV Con1 strain.

[3] abbreviates: IC50 HCV NS5B RNA Polymerase Assay, values without asterisk, 20 nM NS5B570n-Con1 enzyme, 20 nM cIRES RNA template.
The mark [4] stands for this setting: IC50 HCV NS5B RNA Polymerase Assay (values with asterisk), values with asterisk: cIRES RNA template, 3 nM NS5B570n-Con1.
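Wherever IC50 HCV NS5B RNA Polymerase Assay is given: recombinant His-tagged enzyme from E. coli, radiolabeled nucleotide incorporation into acid-insoluble RNA read by scintillation after filtration, no-enzyme background subtracted, activity relative to positive control.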

Broadly, the IC50 is the midpoint of a concentration-inhibition curve. `COc1c(/C=C/c2ccc(NS(C)(=O)=O)cc2)cc(-c2ccc[nH]c2=O)cc1C(C)(C)C` [I-126, N-(4-{(E)-2-[3-tert-Butyl-2-methoxy-5-(2-oxo-1,2-dihydro-pyridin-3-yl)-phenyl]-vinyl}-phenyl)-methanesulfonamide] had an IC50 in series [1] (Hepatitis C virus, 72 h) of 0.006 µM.
Take `Cc1cc(C(=O)O)ccc1[N+](=O)[O-]` [I-129]: the IC50 came to 0.101 µM in series [1] and 0.007 µM in series [2] (values without asterisk, 20 nM NS5B570n-Con1 enzyme, 20 nM cIRES RNA template, read-out: IC50 HCV NS5B RNA Polymerase Assay).
One may read the melting point as the temperature of the solid-liquid transition. Compound `COc1c(CCc2cnc(NS(C)(=O)=O)cn2)cc(-c2ccc[nH]c2=O)cc1C(C)(C)C` [I-133] yielded a melting point of 282 to 283 °C. The compound further showed an IC50 in series [2] (setting [3]) of 0.016 µM.
In the same order, the values of `CC(C)(C)c1cc(/C=C/c2ccc(NS(C)(=O)=O)cc2)c(O)c(-c2ccc[nH]c2=O)c1` [I-137] are 180 to 182 °C and 0.01 µM.
In the same order, the values of `COc1c(/C=C(\C#N)c2ccc(NS(C)(=O)=O)cc2)cc(-c2ccc[nH]c2=O)cc1C(C)(C)C` [I-138, N-(4-{(Z)-2-[3-tert-Butyl-2-methoxy-5-(2-oxo-1,2-dihydro-pyridin-3-yl)-phenyl]-1-cyano-vinyl}-phenyl)-methanesulfonamide] are 288 to 290 °C and 0.01 µM.
The compound `COc1c(/C=C(\C)c2ccc(NS(C)(=O)=O)cc2)cc(-c2ccc[nH]c2=O)cc1C(C)(C)C` [I-139, N-(4-{(E)-2-[3-tert-Butyl-2-methoxy-5-(2-oxo-1,2-dihydro-pyridin-3-yl)-phenyl]-1-methyl-vinyl}-phenyl)-methanesulfonamide] came in with a melting point of 292 to 294 °C. The IC50 in series [2] (setting [3]) was 0.008 µM.
Consider `Cc1ccc(-c2cc(C(C)(C)C)cc(/C=C/c3ccc(NS(C)(=O)=O)cc3)c2O)c(=O)[nH]1` [I-140], for which the melting point was 258 to 260 °C. This compound gave an IC50 in series [2] (setting [3]) of 0.322 µM.
In turn, `CC(C)(C)c1cc(/C=C/c2ccc(NS(C)(=O)=O)cc2)cc(-c2ccc[nH]c2=O)c1` [I-141, N-(4-{(E)-2-[3-tert-Butyl-5-(2-oxo-1,2-dihydro-pyridin-3-yl)-phenyl]-vinyl}-phenyl)-methanesulfonamide] registered a melting point of 260 to 262 °C. The IC50 in series [2] (setting [3]) is 0.026 µM.
On to `COc1c(/C=C/c2ccc(NS(C)(=O)=O)cc2)cc(-c2cc(F)c[nH]c2=O)cc1C(C)(C)C` [I-142, N-(4-{(E)-2-[3-tert-Butyl-5-(5-fluoro-2-oxo-1,2-dihydro-pyridin-3-yl)-2-methoxy-phenyl]-vinyl}-phenyl)-methanesulfonamide], for which the IC50 in series [1] (Hepatitis C virus, 72 h) was found to be 0.078 µM.
For the compound `COc1c(/C=C/c2ccccc2)cc(-c2ccc[nH]c2=O)cc1C(C)(C)C` [I-144], the melting point fell in the range of 183 to 185 °C. This compound registered an IC50 in series [2] (setting [3]) of 0.011 µM.
In the same order, the values of `CC(C)(C)c1cc(/C=C/c2ccc(NS(C)(=O)=O)cc2C#N)cc(-c2ccc[nH]c2=O)c1` [I-147, N-(4-{(E)-2-[3-tert-Butyl-5-(2-oxo-1,2-dihydro-pyridin-3-yl)-phenyl]-vinyl}-3-cyano-phenyl)-methanesulfonamide] are above 300 °C and 0.002 µM.
Taken in the same sequence, the figures for `CC(C)(C)c1cc(/C=C/c2ccc(NS(C)(=O)=O)cc2)cc(-c2cc(F)c[nH]c2=O)c1` [I-148] were 210 to 212 °C and 0.006 µM.
Taken in the same sequence, the figures for `COc1c(/C=C/c2ccc(NS(C)(=O)=O)cc2C#N)cc(-c2ccc[nH]c2=O)cc1C(C)(C)C` [I-150, N-(4-{(E)-2-[3-tert-Butyl-2-methoxy-5-(2-oxo-1,2-dihydro-pyridin-3-yl)-phenyl]-vinyl}-3-cyano-phenyl)-methanesulfonamide] were 266 to 268 °C and 0.003 µM.
As to `COc1c(/C=C/c2ccc(NS(C)(=O)=O)cc2C#N)cc(-c2cc(F)c[nH]c2=O)cc1C(C)(C)C` [I-151, N-(4-{(E)-2-[3-tert-Butyl-5-(5-fluoro-2-oxo-1,2-dihydro-pyridin-3-yl)-2-methoxy-phenyl]-vinyl}-3-cyano-phenyl)-methanesulfonamide], the melting point is 158 to 160 °C. This compound also had an IC50 in series [2] (setting [3]) of 0.005 µM.
Regarding `COc1c(/C=C/c2ccc(NS(C)(=O)=O)cc2CO)cc(-c2cc(F)c[nH]c2=O)cc1C(C)(C)C` [I-187, N-(4-{(E)-2-[3-tert-Butyl-5-(5-fluoro-2-oxo-1,2-dihydro-pyridin-3-yl)-2-methoxy-phenyl]-vinyl}-3-hydroxymethyl-phenyl)-methanesulfonamide], the IC50 came out at 0.0432 µM in series [1] (Hepatitis C virus, 72 h) and 0.003 µM in series [2] (setting [4]).
`COc1c(CC(CN)c2ccc(NS(C)(=O)=O)cc2)cc(-c2ccc[nH]c2=O)cc1C(C)(C)C` (stereo not drawn) [I-191, N-(4-{1-Aminomethyl-2-[3-tert-butyl-2-methoxy-5-(2-oxo-1,2-dihydro-pyridin-3-yl)-phenyl]-ethyl}-phenyl)-methanesulfonamide] displayed a melting point of 158 to 160 °C. The compound also gave an IC50 in series [2] (setting [3]) of 0.027 µM.
Compound `COc1c(CC(CN2CCOCC2)c2ccc(NS(C)(=O)=O)cc2)cc(-c2ccc[nH]c2=O)cc1C(C)(C)C` (stereo not drawn) [I-193] displayed a melting point of 138 to 140 °C. In addition, in series [2] (setting [3]), the midpoint of inhibition, the IC50, lay at 0.012 µM.
In the same order, the values of `COc1c(CC(CN2CCC(F)(F)C2)c2ccc(NS(C)(=O)=O)cc2)cc(-c2ccc[nH]c2=O)cc1C(C)(C)C` (stereo not drawn) [I-195] are 133 to 135 °C and 0.018 µM.
Taken in the same sequence, the figures for `COc1c(CC(C)(C#N)c2ccc(NS(C)(=O)=O)cc2)cc(-c2ccc[nH]c2=O)cc1C(C)(C)C` (stereo not drawn) [I-196, N-(4-{2-[3-tert-Butyl-2-methoxy-5-(2-oxo-1,2-dihydro-pyridin-3-yl)-phenyl]-1-cyano-1-methyl-ethyl}-phenyl)-methanesulfonamide] were 158 to 160 °C and 0.03 µM.
Compound `COc1c(CC(C)(CN)c2ccc(NS(C)(=O)=O)cc2)cc(-c2ccc[nH]c2=O)cc1C(C)(C)C` (stereo not drawn) [I-197, N-(4-{1-Aminomethyl-2-[3-tert-butyl-2-methoxy-5-(2-oxo-1,2-dihydro-pyridin-3-yl)-phenyl]-1-methyl-ethyl}-phenyl)-methanesulfonamide] returned a melting point of 240 to 242 °C. This compound yielded an IC50 in series [2] (setting [3]) of 0.084 µM.
In the same order, the values of `CC(C)(CO)c1cc(CCc2ccc(NS(C)(=O)=O)cc2)c(O)c(-c2ccc[nH]c2=O)c1` [I-199, N-(4-{2-[2-Hydroxy-5-(2-hydroxy-1,1-dimethyl-ethyl)-3-(2-oxo-1,2-dihydro-pyridin-3-yl)-phenyl]-ethyl}-phenyl)-methanesulfonamide] are 118 to 120 °C and 0.013 µM.
In turn, `COc1c(/C=C/c2ccc(NS(C)(=O)=O)cc2C(=O)O)cc(-c2ccc[nH]c2=O)cc1C(C)(C)C` [I-203, 2-{(E)-2-[3-tert-Butyl-2-methoxy-5-(2-oxo-1,2-dihydro-pyridin-3-yl)-phenyl]-vinyl}-5-methanesulfonylamino-benzoic acid] had a melting point of 260 to 262 °C. In series [1] (Hepatitis C virus, 72 h), this compound registered an IC50 of 0.01 µM.
In the case of `COc1c(/C=C/c2ccc(NS(C)(=O)=O)cc2CO)cc(-c2ccc[nH]c2=O)cc1C(C)(C)C` [I-205, N-(4-{(E)-2-[3-tert-Butyl-2-methoxy-5-(2-oxo-1,2-dihydro-pyridin-3-yl)-phenyl]-vinyl}-3-hydroxymethyl-phenyl)-methanesulfonamide], the melting point is 140 to 142 °C. Besides, half-maximal inhibition in series [2] (setting [4]) (IC50) was put at 0.002 µM.
The compound `COc1c(/C=C/c2ccccc2C(C)=O)cc(-c2ccc[nH]c2=O)cc1C(C)(C)C` [I-243, 3-{3-[(E)-2-(2-Acetyl-phenyl)-vinyl]-5-tert-butyl-4-methoxy-phenyl}-1H-pyridin-2-one] yielded an IC50 in series [1] (Hepatitis C virus, 72 h) of 0.208 µM.
The same measure, in the same setting: next, `COc1c(/C=C/c2ccc(NS(C)(=O)=O)cc2)cc(-c2ccc[nH]c2=O)cc1C1(Cl)CC1` [I-267]: 0.0102 µM; `COc1c(/C=C/c2ccc(NS(C)(=O)=O)cc2)cc(-c2ccc[nH]c2=O)cc1C1(C#N)CC1` [I-268, N-(4-{(E)-2-[3-(1-Cyano-cyclopropyl)-2-methoxy-5-(2-oxo-1,2-dihydro-pyridin-3-yl)-phenyl]-vinyl}-phenyl)-methanesulfonamide]: 0.022 µM.
With `COc1c(/C=C/c2ccc(NS(C)(=O)=O)cc2)cc(-c2ccc[nH]c2=O)cc1C1(C(F)F)CC1` [I-270], the IC50 in series [1] (Hepatitis C virus, 72 h) turned out to be 0.0344 µM; in series [2] (setting [4]) it was 0.001 µM.
Compound `CC1(C)COc2c(/C=C/c3ccc(NS(C)(=O)=O)cc3)cc(-c3ccc[nH]c3=O)cc21` [II-1, N-(4-{(E)-2-[3,3-Dimethyl-5-(2-oxo-1,2-dihydro-pyridin-3-yl)-2,3-dihydro-benzofuran-7-yl]-vinyl}-phenyl)-methanesulfonamide] returned a melting point of 284 to 286 °C. This compound also came in with an IC50 in series [2] (setting [3]) of 0.005 µM.
Taken in the same sequence, the figures for `CC1(C)COc2c(-c3ccc[nH]c3=O)cc(/C=C/c3ccc(NS(C)(=O)=O)cc3)cc21` [II-2] were 231 to 233 °C and 0.006 µM.
In the same order, the values of `CC1(C)COc2c(-c3ccc[nH]c3=O)cc(NC(=O)c3ccc(NS(C)(=O)=O)cc3)cc21` [II-4, N-[3,3-Dimethyl-7-(2-oxo-1,2-dihydro-pyridin-3-yl)-2,3-dihydro-benzofuran-5-yl]-4-methanesulfonylamino-benzamide] are above 300 °C and 0.033 µM.
`COc1c(/C=C/c2ccc(NS(C)(=O)=O)cc2)cc(-c2ccc[nH]c2=O)c2c1C(C)(C)CC2` [II-5, N-(4-{(E)-2-[4-Methoxy-3,3-dimethyl-7-(2-oxo-1,2-dihydro-pyridin-3-yl)-indan-5-yl]-vinyl}-phenyl)-methanesulfonamide]: the melting point lay within 283 to 286.6 °C. Moreover, the IC50 in series [2] (setting [4]) amounted to 0.001 µM.
